# Patent US10597391B2, “Urea-containing isoxazole derivatives as FXR agonists and methods of use thereof” (Enanta Pharmaceuticals, Inc., priority 2016, dated 2020)
# Several values for one entry are separate records, joined by “and”; a condition that tells them apart may be missing. Equal entries are not always repeated.
# Biological target: T1, human FXR (NR1H4) (Homo sapiens, UniProt Q96RI1)
# T1 sequence (Q96RI1 1-486): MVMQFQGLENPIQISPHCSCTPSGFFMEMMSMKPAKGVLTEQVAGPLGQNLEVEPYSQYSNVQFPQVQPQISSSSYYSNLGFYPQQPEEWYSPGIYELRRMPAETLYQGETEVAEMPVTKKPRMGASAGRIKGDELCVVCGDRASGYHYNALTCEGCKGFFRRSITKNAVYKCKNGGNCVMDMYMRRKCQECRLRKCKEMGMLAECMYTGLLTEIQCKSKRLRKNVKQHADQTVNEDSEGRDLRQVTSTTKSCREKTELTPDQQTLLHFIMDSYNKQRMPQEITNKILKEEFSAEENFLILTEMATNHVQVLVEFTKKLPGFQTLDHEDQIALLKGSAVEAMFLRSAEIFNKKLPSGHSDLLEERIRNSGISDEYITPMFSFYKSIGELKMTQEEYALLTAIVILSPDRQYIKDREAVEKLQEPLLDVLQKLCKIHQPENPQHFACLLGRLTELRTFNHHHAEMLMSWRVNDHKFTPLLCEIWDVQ
# Assay: Human FXR (NR1H4) Assay: Gal4 promoter driven luciferase reporter transactivation in CHO cells (Indigo Bioscience kit IB00601)
# Assay type: cell-based
# Settings: for Emax: CHO, efficacy normalized to CDCA set as 100%, read-out: Efficacy (%); for EC50: potency range, Human FXR (NR1H4) reporter assay in CHO cells, read-out: EC50
# From the text: Human FXR (NR1H4) Assay Determination of a ligand mediated Gal4 promoter driven transactivation to quantify ligand binding mediated activation of FXR. FXR Reporter Assay kit purchased from Indigo Bioscience (Catalogue number: IB00601) to determine the potency and efficacy of compounds that can induce FXR activation. The principle application of this reporter assay system is to quantify functional activity of human FXR. The assay utilizes non-human mammalian cells, CHO (Chinese hamster ovary) cells engineered to express human NR1H4 protein (referred to as FXR). Reporter cells also incorporate the cDNA encoding beetle luciferase which catalyzes the substrates and yields photon emission. Luminescence intensity of the reaction is quantified using a plate-reading luminometer, Envision. Reporter Cells include the luciferase reporter gene functionally linked to an FXR responsive promoter. Thus, quantifying changes in luciferase expression in the treated reporter cells provides a sensitive surrogate measure of the changes in FXR activity. […] The assay is according to the manufacturer's instructions. […] Retrieve Reporter Cells from −80° C. storage. Perform a rapid thaw of the frozen cells by transferring a 10 ml volume of 37° C. cell recovery medium into the tube of frozen cells. […] Retrieve the tube of Reporter Cell Suspension from the water bath. […] Dispense 90 μl of cell suspension into each well of the 96-well Assay Plate. Transfer the plate into 37° C. incubator, allowing the cells adherent to the bottom of the well. Dilute compounds in Dilution Plate (DP), and administrate to cells at Assay Plate (AP). […] Cells were incubated for additional 22 hours before luciferase activities were measured. Thirty minutes before intending to quantify FXR activity, remove Detection Substrate and Detection Buffer from the refrigerator and place them in a low-light area so that they may equilibrate to room temperature. Remove the plate's lid and discard all media contents by ejecting it into an appropriate waste container. Gently tap the inverted plate onto a clean absorbent paper towel to remove residual droplets. Cells will remain tightly adhered to well bottoms. Add 100 μl of luciferase detection reagent to each well of the assay plate. Allow the assay plate to rest at room temperature for at least 5 minutes following the addition of LDR. Set the instrument (Envision) to perform a single 5 second “plate shake” prior to reading the first assay well. Read time may be 0.5 second (500 mSec) per well.
SMILES,Emax [%],EC50
CC(=O)N1CC=C(c2cccc(NC(=O)N3C4CCC3CC(OCc3c(-c5c(Cl)cccc5Cl)noc3C3CC3)C4)c2)CC1 (stereo not drawn) [Example 713],162,< 10 nM
CC(=O)N1CCC(c2cccc(NC(=O)N3C4CCC3CC(OCc3c(-c5c(Cl)cccc5Cl)noc3C3CC3)C4)c2)CC1 (stereo not drawn) [Example 714],156,10 to 100 nM
CN1CC=C(c2cccc(NC(=O)N3C4CCC3CC(OCc3c(-c5c(Cl)cccc5Cl)noc3C3CC3)C4)c2)CC1 (stereo not drawn) [Example 715],123,10 to 100 nM
COC(=O)c1ccc(NC(=O)N2C3CCC2CC(OCc2c(-c4c(Cl)cccc4Cl)noc2C2CC2)C3)c(OC(F)(F)F)c1 (stereo not drawn) [Example 716],43,100 to 1000 nM
O=C(O)c1ccc(NC(=O)N2C3CCC2CC(OCc2c(-c4c(Cl)cccc4Cl)noc2C2CC2)C3)c(OC(F)(F)F)c1 (stereo not drawn) [Example 717],149,100 to 1000 nM
CCOc1cc(C(=O)OC)ccc1NC(=O)N1C2CCC1CC(OCc1c(-c3c(Cl)cccc3Cl)noc1C1CC1)C2 (stereo not drawn) [Example 718],119,10 to 100 nM
COC(=O)c1ccc(NC(=O)N2C3CCC2CC(OCc2c(-c4c(Cl)cccc4Cl)noc2C2CC2)C3)c(OC(C)C)c1 (stereo not drawn) [Example 719],104,100 to 1000 nM
CCOc1cc(C(=O)O)ccc1NC(=O)N1C2CCC1CC(OCc1c(-c3c(Cl)cccc3Cl)noc1C1CC1)C2 (stereo not drawn) [Example 720],171,< 10 nM
CC(C)Oc1cc(C(=O)O)ccc1NC(=O)N1C2CCC1CC(OCc1c(-c3c(Cl)cccc3Cl)noc1C1CC1)C2 (stereo not drawn) [Example 721],133,10 to 100 nM
COC(=O)c1ccc(F)c(NC(=O)N2C3CCC2CC(OCc2c(-c4c(Cl)cccc4Cl)noc2C2CC2)C3)c1 (stereo not drawn) [Example 722],115,< 10 nM
O=C(O)c1ccc(F)c(NC(=O)N2C3CCC2CC(OCc2c(-c4c(Cl)cccc4Cl)noc2C2CC2)C3)c1 (stereo not drawn) [Example 723],140,100 to 1000 nM
COC(=O)c1ccc(OC)c(NC(=O)N2C3CCC2CC(OCc2c(-c4c(Cl)cccc4Cl)noc2C2CC2)C3)c1 (stereo not drawn) [Example 724],137,10 to 100 nM
COc1ccc(C(=O)O)cc1NC(=O)N1C2CCC1CC(OCc1c(-c3c(Cl)cccc3Cl)noc1C1CC1)C2 (stereo not drawn) [Example 725],140,100 to 1000 nM
COC(=O)c1cc(NC(=O)N2C3CCC2CC(OCc2c(-c4c(Cl)cccc4Cl)noc2C2CC2)C3)cc(-c2cccnc2)c1 (stereo not drawn) [Example 726],81,< 10 nM
O=C(O)c1cc(NC(=O)N2C3CCC2CC(OCc2c(-c4c(Cl)cccc4Cl)noc2C2CC2)C3)cc(-c2cccnc2)c1 (stereo not drawn) [Example 727],,10 to 100 nM and < 10 nM
O=C(Nc1ccc(-c2ccccc2)cc1)N1C2CCC1CC(OCc1c(-c3c(Cl)cccc3Cl)noc1C1CC1)C2 (stereo not drawn) [Example 728],141,10 to 100 nM
O=C(Nc1cccc(-c2ccccc2)c1)N1C2CCC1CC(OCc1c(-c3c(Cl)cccc3Cl)noc1C1CC1)C2 (stereo not drawn) [Example 729],148,< 10 nM
O=C(NCc1ccccc1)N1C2CCC1CC(OCc1c(-c3c(Cl)cccc3Cl)noc1C1CC1)C2 (stereo not drawn) [Example 730],252,< 10 nM
COc1ccc(CNC(=O)N2C3CCC2CC(OCc2c(-c4c(Cl)cccc4Cl)noc2C2CC2)C3)cc1 (stereo not drawn) [Example 731],229,< 10 nM
O=C(NCc1ccc(F)cc1)N1C2CCC1CC(OCc1c(-c3c(Cl)cccc3Cl)noc1C1CC1)C2 (stereo not drawn) [Example 732],180,< 10 nM
O=C(NCc1ccc(F)c(F)c1)N1C2CCC1CC(OCc1c(-c3c(Cl)cccc3Cl)noc1C1CC1)C2 (stereo not drawn) [Example 733],175,< 10 nM
O=C(NCc1cccc(C(F)(F)F)c1)N1C2CCC1CC(OCc1c(-c3c(Cl)cccc3Cl)noc1C1CC1)C2 (stereo not drawn) [Example 734],172,10 to 100 nM
O=C(NCc1cccc(-c2ccccc2)c1)N1C2CCC1CC(OCc1c(-c3c(Cl)cccc3Cl)noc1C1CC1)C2 (stereo not drawn) [Example 735],136,100 to 1000 nM
